Like-named read-outs stand apart in the source and are kept apart here.
Tests used:
Format in all cases: in vivo
[1] = test system: Tobacco Cutworm (Spodoptera litura) Larvae; test: Test against tobacco cutworm (Spodoptera litura) larvae, leaf dip; conditions: active compound concentration 100 ppm; third-instar larvae; after 7 days
Experimental: (§1) Unless nomentioned otherwise, the test solutions were prepared as follows:
(§2) Containing as solvent: Dimethylformamide, 3 parts by weight; and as emulsifier: Polyoxyethylene alkyl phenyl ether, 1 part by weight
(§3) To prepare the test solution, 1 part by weight of an active compound is mixed with the above-mentioned amount of solvent containing the above-mentioned amount of emulsifier, and the mixture is diluted with water to the desired concentration.
The leaves of sweet potato were immersed in the test solution at the appropriate concentration, and the leaves were dried in air. The leaves were then placed in a petri dish having a diameter of 9 cm, and ten third-instar larvae of tobacco cutworm were released therein. The petri dish was placed in a temperature chamber at 25° C. After 2 days and 4 days sweet potato leaves were additionally added. After 7 days, the number of dead larvae was counted, to calculate the insecticidal activity. An insecticidal activity of 100% means that all larvae were killed, whereas an insecticidal activity of 0% means that no larva was killed. In the current test, the results of two petri dishes for each partition were averaged.

[2] = test system: Two-Spotted Spider Mite (Tetranvchus urticae); test: Test against two-spotted spider mite, spray on kidney bean; conditions: active compound concentration 100 ppm; adult mites; after 7 days
Experimental: as §1, §2, §3
50 to 100 adult two-spotted spider mites were inoculated onto the leaves of kidney beans at the two-true leaf stage, which plant had been cultivated in a pot having a diameter of 6 cm. After one day, test solution at the appropriate concentration was sprayed thereon in a sufficient amount using a spray gun. After the spraying, the plant pot was placed inside a greenhouse, and after 7 days, the acaricidal activity was calculated. An acaricidal activity of 100% means that all mites were killed, whereas an acaricidal activity of 0% means that no mite was killed.

[3] = test system: Cucurbit Leaf Beetle (Aulacophora femoralis); test: Test against cucurbit leaf beetle, cucumber leaf dip; conditions: active compound concentration 100 ppm; second-instar larvae; after 7 days
Experimental: as §1, §2, §3
Cucumber leaves were immersed in the test solution at the appropriate concentration, and the leaves were dried in air. The leaves were then placed in a plastic cup containing aseptically sterilized black soil, and five second-instar larvae of cucurbit leaf beetle were released therein. After 7 days, the number of dead larvae was counted, and thus the insecticidal activity was calculated. An insecticidal activity of 100% means that all beetles were killed, whereas an insecticidal activity of 0% means that no beetle was killed.

[4] = test system: Strain of Green Peach Aphid (Mvzus persicas) which is Resistant to Organic Phosphorus and Carbamate Agents; test: Test against resistant green peach aphid, spray on egg plant; conditions: active compound concentration 500 ppm; after 7 days
Experimental: as §1, §2, §3
About 30 to 50 of the resistant green peach aphids were inoculated per seedling, onto the leaves of egg plant at the two-true leaf stage, which plant had been cultivated in a pot having a diameter of 6 cm. One day after the inoculation, the test solution at the appropriate concentration was sprayed thereon in a sufficient amount using a spray gun. After the spraying, the plant pot was placed in a greenhouse at 28° C., and after 7 days, the insecticidal activity was calculated. An insecticidal activity of 100% means that all aphids were killed, whereas an insecticidal activity of […] means that no aphid was killed. The test was repeated two times.

[5] = test system: Cat Fleas (Ctenocephalides fells); test: Test against cat fleas, blood feeding; conditions: for mortality at 100 ppm: Ctenocephalides, 48 h, read-out: mortality rate
Experimental: (§4) Solvent: Dimethylsulfoxide
About 10 to 15 adult cat fleas are provided in a container exclusive for fleas. An exclusive container containing the test solution is covered with Parafilm, reversed upside down, and then mounted on top of the flea container, so that the cat fleas can suck the blood in the container. The test solution is maintained at 37° C., and the flea container is maintained at room temperature. After 2 days the mortality rate of the cat fleas is measured. 100% means that all of the cat fleas have been killed, while 0% means that all are alive.

[6] = test system: Cattle Tick (Boophilus microplus); test: Test against cattle tick, injection; conditions: 20 μg/animal injected; after 7 days; 100% means that all eggs are infertile
Experimental: as §4
In order to make a suitable test solution, 10 mg of an active compound is dissolved in 0.5 ml of the above mentioned solvent, and the mixture is diluted with water to a predetermined concentration.
The test solution is injected into the abdomens of five fully-fed female adult cattle ticks. The cattle ticks are transferred to a replica plate, and are bred in a breeding vessel for a certain time period. Egg deposition of fertile eggs is monitored.
After 7 days the mortality rate of the cattle ticks is measured. 100% means that all eggs are infertile; and 0% means that all eggs are fertile.

[7] = test system: Sheep Blowfly (Lucillia cuprina); test: Test against sheep blowfly; conditions: active compound concentration 100 ppm; after 2 days
Experimental: as §4
(§5) In order to make a suitable test solution, 10 mg of an active compound is dissolved in 0.5 ml of the solvent, and the mixture is diluted with water to a predetermined concentration.
Minced horse meat having a size of 1 square centimeter, and 0.5 ml of the test solution are placed in a test tube, and about 20 to 30 adult sheep blowflies are introduced therein.
After 2 days the mortality rate of the sheep blowflies is measured. 100% means that all of the sheep blowflies have been killed, and 0% means that all are alive.

[8] = test system: Housefly (Musca domestica); test: Test against housefly; conditions: for mortality at 100 ppm: Musca domestica, 48 h, read-out: mortality rate
Experimental: as §4, §5
In a preliminary stage of the test, a piece of sponge having a certain size is soaked with a mixture of sugar and the test solution is placed in a test container. Ten adult houseflies are introduced to the container, and the container is covered with a perforated lid.
After 2 days, the mortality rate of the houseflies is measured. At that time, 100% means that all of the houseflies have been killed, and 0% means that all are alive.

[9] = test system: Nymphs of the tick Amblyomma hebraeum; test: Amblyomma hebraeum test, nymph immersion; conditions: 48 h, read-out: activity (mortality in %)
Experimental: as §4
To produce a suitable preparation of active compound. 1 part by weight of active compound is mixed with the stated amount of solvent, and the concentrate is diluted with containing solvent to the desired concentration.
Nymphs of the tick Amblyomma hebraeum are placed in perforated plastic beakers and immersed in aqueous compound solution for one minute. Ticks are transferred to a filter paper in a Petri dish and incubated in a climate chamber for 42 days.
After 2 days mortality in % is determined. 100% means that all the ticks have been killed; 0% means that none of the ticks have been killed.

[10] = test system: adult engorged female Boophilus microplus ticks; test: Boophilus microplus test, immersion of engorged females; conditions: Rhipicephalus microplus, 168 h, read-out: activity (mortality in %)
Experimental: Solvent: Dimethylsulfoxid
To produce a suitable preparation of active compound, 10 mg of active compound are dissolved in 0.5 ml solvent, and the concentrate is diluted with water to the desired concentration.
Eight to ten adult engorged female Boophilus microplus ticks are placed in perforated plastic beakers and immersed in aqueous compound solution for one minute. Ticks are transferred to a filter paper in a plastic tray. Egg deposition of fertile eggs is monitored after.
After 7 days mortality in % is determined. 100% means that all the ticks have been killed; 0% means that none of the ticks have been killed.

[11] = active compound concentration 100 ppm in blood, adult fleas, after 2 days
[12] = application rate 100 ppm, immersed one minute, after 7 days
[13] = application rate 100 ppm, immersed one minute, after 2 days

| SMILES | insecticidal activity [1] [%] | acaricidal activity [2] [%] | insecticidal activity [3] [%] | insecticidal activity [4] [%] | mortality rate [5, 11] | mortality rate [6] [%] | mortality rate [7] [%] | mortality rate ([8]; active compound concentration 100 ppm, adult houseflies, after 2 days) [%] | mortality at 100 ppm [5] [%] | mortality at 100 ppm [8] [%] | mortality at 100 ppm [9] [%] | mortality at 100 ppm [10] [%] | mortality at 100 ppm [5, 11] [%] | mortality at 100 ppm [10, 12] [%] | mortality at 100 ppm [9, 13] [%] |
| --- | --- | --- | --- | --- | --- | --- | --- | --- | --- | --- | --- | --- | --- | --- | --- |
| FC(F)(F)C1(c2cc(Cl)cc(Cl)c2)CN=C(c2ccc(-n3cncn3)c(Br)c2)C1 (stereo not shown) [1-21] | 100 | 100 | 100 | 100 | at least 90% | 100 | 100 | 100 | – | – | – | – | – | – | – |
| CS/C(=N\C[Si](C)(C)C)c1ccc(COC(C)=O)c2ccccc12 [15-2, {4-[(Z)-(methylsulfanyl){[(trimethylsilyl)methyl]imino}methyl]naphthalen-1-yl}methyl acetate] | – | – | – | – | – | – | – | – | ≥ 80 | ≥ 80 | ≥ 80 | ≥ 80 | – | – | – |
| CC(=O)NCc1ccc(C2=NCC(c3cc(Cl)cc(Cl)c3)(C(F)(F)F)C2)cc1Br (stereo not shown) [2-13, N-{2-bromo-4-[3-(3,5-dichlorophenyl)-3-(trifluoromethyl)-3,4-dihydro-2H-pyrrol-5-yl]benzyl}acetamide] | 100 | – | – | – | – | – | – | – | – | ≥ 80 | – | – | ≥ 80 | ≥ 80 | – |
| N#Cc1cc(C2=NCC(c3cc(Cl)c(Cl)c(Cl)c3)(C(F)(F)F)C2)ccc1-n1cncn1 (stereo not shown) [1-78, 2-(1H-1,2,4-triazol-1-yl)-5-[3-(3,4,5-trichlorophenyl)-3-(trifluoromethyl)-3,4-dihydro-2H-pyrrol-5-yl]-benzonitrile] | 100 | 100 | 100 | 100 | – | – | – | – | – | ≥ 80 | – | – | ≥ 80 | ≥ 80 | ≥ 80 |
| N#Cc1cc(C2=NCC(c3cc(Cl)cc(Cl)c3)(C(F)(F)F)C2)ccc1-n1cncn1 (stereo not shown) [Compound No. 1-39, 5-[3-(3,5-dichlorophenyl)-3-(trifluoromethyl)-3,4-dihydro-2H-pyrrol-5-yl]-2-(1H-1,2,4-triazol-1-yl)benzonitrile] | 100 | 98 | 100 | 98 | – | – | 100 | – | – | 100 | – | – | 100 | ≥ 80 | ≥ 80 |
| CSCC(=O)NCc1ccc(C2=NCC(c3cc(Cl)c(Cl)c(Cl)c3)(C(F)(F)F)C2)cc1C(F)(F)F (racemic) [2-209] | 100 | 100 | 100 | 100 | – | – | – | – | – | – | – | – | – | – | – |
